Data reported in PubChem BioAssay (NCI).
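Cultured in 96-well plates, cells were exposed to test compound for 48 hours across five concentrations. At the TGI there is no net growth.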

Assays:
Test in all cases: NCI anticancer screen, dose series, 48 h
SR leukemia = system: SR leukemia
A549 NSCLC = system: A549 NSCLC
A498 renal = system: A498 renal
MDA-N = system: MDA-N
HL-60(TB) leukemia = system: HL-60(TB) leukemia
SK-MEL-5 melanoma = system: SK-MEL-5 melanoma
NCI-H23 lung = system: NCI-H23 lung
OVCAR-3 ovarian = system: OVCAR-3 ovarian
IGROV1 ovarian = system: IGROV1 ovarian
UO-31 renal = system: UO-31 renal
MALME-3M melanoma = system: MALME-3M melanoma
HCT-116 colon = system: HCT-116 colon
786-0 renal = system: 786-0 renal
MDA-MB-435 = system: MDA-MB-435
UACC-62 melanoma = system: UACC-62 melanoma
UACC-257 melanoma = system: UACC-257 melanoma
HCT-15 colon = system: HCT-15 colon
MCF7 breast = system: MCF7 breast
U251 CNS = system: U251 CNS
CCRF-CEM leukemia = system: CCRF-CEM leukemia
OVCAR-4 ovarian = system: OVCAR-4 ovarian
TK-10 renal = system: TK-10 renal
SK-MEL-2 melanoma = system: SK-MEL-2 melanoma
HCC-2998 colon = system: HCC-2998 colon
MDA-MB-231 breast = system: MDA-MB-231 breast
PC-3 prostate = system: PC-3 prostate
OVCAR-8 ovarian = system: OVCAR-8 ovarian
EKVX NSCLC = system: EKVX NSCLC
LOX IMVI melanoma = system: LOX IMVI melanoma
RXF 393 renal = system: RXF 393 renal
OVCAR-5 ovarian = system: OVCAR-5 ovarian
COLO 205 colon = system: COLO 205 colon
SNB-19 CNS = system: SNB-19 CNS
SNB-75 CNS = system: SNB-75 CNS
NCI-H460 lung = system: NCI-H460 lung
SN12C renal = system: SN12C renal
HT29 colon = system: HT29 colon
M14 melanoma = system: M14 melanoma
SF-539 CNS = system: SF-539 CNS
HOP-62 NSCLC = system: HOP-62 NSCLC
NCI-H226 lung = system: NCI-H226 lung
SW-620 colon = system: SW-620 colon
HS 578T breast = system: HS 578T breast
K-562 leukemia = system: K-562 leukemia
SF-295 CNS = system: SF-295 CNS
HOP-92 NSCLC = system: HOP-92 NSCLC
SK-MEL-28 melanoma = system: SK-MEL-28 melanoma
SK-OV-3 ovarian = system: SK-OV-3 ovarian
KM12 colon = system: KM12 colon
MOLT-4 leukemia = system: MOLT-4 leukemia
CAKI-1 renal = system: CAKI-1 renal
BT-549 breast = system: BT-549 breast
NCI/ADR-RES ovarian = system: NCI/ADR-RES ovarian
ACHN renal = system: ACHN renal
SF-268 CNS = system: SF-268 CNS
NCI-H522 lung = system: NCI-H522 lung
T-47D breast = system: T-47D breast
RPMI-8226 leukemia = system: RPMI-8226 leukemia
DU-145 prostate = system: DU-145 prostate

In the case of CCOc1cccc(/C=N/N=C2\C(=O)Nc3c(Cl)cc(Cl)cc32)c1O, the TGI (SR leukemia) is reported as greater than 100 µM, the TGI (A549 NSCLC) is reported as greater than 100 µM and the TGI (A498 renal) is reported as greater than 100 µM. It also gave a TGI (MDA-N) greater than 100 µM, a TGI (HL-60(TB) leukemia) greater than 100 µM and a TGI (SK-MEL-5 melanoma) greater than 100 µM. For the same molecule, the TGI (NCI-H23 lung) was greater than 100 µM, the TGI (OVCAR-3 ovarian) was greater than 100 µM and the TGI (IGROV1 ovarian) was greater than 100 µM. It also gave a TGI (UO-31 renal) greater than 100 µM, a TGI (MALME-3M melanoma) greater than 100 µM and a TGI (HCT-116 colon) greater than 100 µM. For the same molecule, the TGI (786-0 renal) was greater than 100 µM, the TGI (MDA-MB-435) was greater than 100 µM and the TGI (UACC-62 melanoma) was greater than 100 µM. For the same molecule, the TGI (UACC-257 melanoma) was greater than 100 µM, the TGI (HCT-15 colon) was greater than 100 µM and the TGI (MCF7 breast) was greater than 100 µM. The TGI (U251 CNS) was greater than 100 µM, the TGI (CCRF-CEM leukemia) was greater than 100 µM and the TGI (OVCAR-4 ovarian) was greater than 100 µM. The TGI (TK-10 renal) was greater than 100 µM, the TGI (SK-MEL-2 melanoma) was greater than 100 µM and the TGI (HCC-2998 colon) was greater than 100 µM. For the same molecule, the TGI (MDA-MB-231 breast) was greater than 100 µM, the TGI (PC-3 prostate) was greater than 100 µM and the TGI (OVCAR-8 ovarian) was greater than 100 µM. The TGI (EKVX NSCLC) was greater than 100 µM, the TGI (LOX IMVI melanoma) was greater than 100 µM and the TGI (RXF 393 renal) was greater than 100 µM. The TGI (OVCAR-5 ovarian) was greater than 100 µM, the TGI (COLO 205 colon) was greater than 100 µM and the TGI (SNB-19 CNS) was greater than 100 µM. The TGI (SNB-75 CNS) was 89.6 µM, the TGI (NCI-H460 lung) was greater than 100 µM and the TGI (SN12C renal) was greater than 100 µM. The TGI (HT29 colon) was greater than 100 µM, the TGI (M14 melanoma) was greater than 100 µM and the TGI (SF-539 CNS) was greater than 100 µM. It also gave a TGI (HOP-62 NSCLC) greater than 100 µM, a TGI (NCI-H226 lung) greater than 100 µM and a TGI (SW-620 colon) greater than 100 µM. The TGI (HS 578T breast) was greater than 100 µM, the TGI (K-562 leukemia) was greater than 100 µM and the TGI (SF-295 CNS) was greater than 100 µM. For the same molecule, the TGI (HOP-92 NSCLC) was greater than 100 µM, the TGI (SK-MEL-28 melanoma) was greater than 100 µM and the TGI (SK-OV-3 ovarian) was greater than 100 µM. The TGI (KM12 colon) was greater than 100 µM, the TGI (MOLT-4 leukemia) was greater than 100 µM and the TGI (CAKI-1 renal) was greater than 100 µM. It also gave a TGI (BT-549 breast) greater than 100 µM, a TGI (NCI/ADR-RES ovarian) greater than 100 µM and a TGI (ACHN renal) greater than 100 µM.

CC1=NN(c2cccc(Cl)c2)C(=N/c2nc3ccccc3s2)/C1=C\c1ccc(Cl)cc1 was tested, and the TGI (SR leukemia) was 81 µM, the TGI (A498 renal) was 43.9 µM and the TGI (MDA-N) was 56.1 µM. The TGI (HL-60(TB) leukemia) was 54.5 µM, the TGI (SK-MEL-5 melanoma) was 32 µM and the TGI (NCI-H23 lung) was 39.3 µM. It also gave a TGI (OVCAR-3 ovarian) of 52.5 µM, a TGI (IGROV1 ovarian) of 33.1 µM and a TGI (UO-31 renal) of 46.3 µM. The TGI (SF-268 CNS) was 38.6 µM, the TGI (HCT-116 colon) was 30.7 µM and the TGI (786-0 renal) was 34 µM. For the same molecule, the TGI (UACC-257 melanoma) was 51.2 µM, the TGI (HCT-15 colon) was 28.9 µM and the TGI (MCF7 breast) was 65.3 µM. It also gave a TGI (U251 CNS) of 28.7 µM, a TGI (CCRF-CEM leukemia) of 96.9 µM and a TGI (NCI-H522 lung) of 35.7 µM. The TGI (TK-10 renal) was 64.3 µM, the TGI (SK-MEL-2 melanoma) was 34.2 µM and the TGI (HCC-2998 colon) was 31 µM. The TGI (T-47D breast) was greater than 100 µM, the TGI (MDA-MB-231 breast) was 49.2 µM and the TGI (PC-3 prostate) was 31.3 µM. It also gave a TGI (OVCAR-8 ovarian) of 39.8 µM, a TGI (EKVX NSCLC) greater than 100 µM and a TGI (LOX IMVI melanoma) of 34 µM. For the same molecule, the TGI (RXF 393 renal) was 42.1 µM, the TGI (OVCAR-5 ovarian) was 40.4 µM and the TGI (RPMI-8226 leukemia) was greater than 100 µM. It also gave a TGI (SNB-75 CNS) greater than 100 µM, a TGI (NCI-H460 lung) of 34.3 µM and a TGI (HT29 colon) of 34 µM. The TGI (M14 melanoma) was 52.2 µM, the TGI (SF-539 CNS) was 36.4 µM and the TGI (HOP-62 NSCLC) was 54.5 µM. For the same molecule, the TGI (NCI-H226 lung) was 43.8 µM, the TGI (SW-620 colon) was 42.3 µM and the TGI (HS 578T breast) was 60 µM. The TGI (K-562 leukemia) was greater than 100 µM, the TGI (SF-295 CNS) was 61.6 µM and the TGI (HOP-92 NSCLC) was 36.1 µM. For the same molecule, the TGI (SK-MEL-28 melanoma) was 45.2 µM, the TGI (SK-OV-3 ovarian) was 95.3 µM and the TGI (DU-145 prostate) was greater than 100 µM. For the same molecule, the TGI (MOLT-4 leukemia) was 73.7 µM, the TGI (NCI/ADR-RES ovarian) was 50.7 µM and the TGI (ACHN renal) was 58.9 µM.
